Columns and labels:
[1] = tested on: LDL (low-density lipoprotein); assay: oxidation resistance of LDL (study by Milde and Elstner); assay type: biochemical; conditions: lutein as a powder or dissolved in ethanol vs. solubilizate
From the text: A study by J. Milde and E. F. Elstner (Technical University of Munich) has shown that lutein has no effect on the oxidation resistance of LDL (low-density lipoprotein) as a powder or dissolved in ethanol. […] The micellated lutein from the solubilizate is enriched in the LDL by a factor of 9 more (10 mole lutein/mole LDL).

[2] = cited from earlier work

Compound | effect on the oxidation resistance of LDL [1] | solubility in water (background statement) [2]
CC1=C[C@H](O)CC(C)(C)[C@H]1/C=C/C(C)=C/C=C/C(C)=C/C=C/C=C(C)/C=C/C=C(C)/C=C/C1=C(C)C[C@@H](O)CC1(C)C [lutein] | no effect | practically insoluble in water
lutein ester | – | practically insoluble in water

Source: US20070148193A1, “Lutein concentrate” (AQUANOVA GERMAN SOLUBILISATE TECHNOLOGIES (AGT) GM, priority 2003, published 2007)
